Reference: patent US20130045267A1, “METHODS OF USING AGENTS THAT MODULATE CLAUDIN EXPRESSION” (priority 2010, published 2013)

What was measured:
[1] = system: human epidermis sheet; experiment: TEER in human epidermal sheets (snap-well system); conditions: 1 mM; for TEER, dmem + SC_1 / TEER, dmem + SC_2 / TEER, mean SC: T0 = 1.00
Source text: Epidermal sheets were obtained from discarded human skin using a weck blade (0.08 inch). Epidermal samples were mounted in an adapted snap-well system (Pierro et al., “Zonula Occludens Toxin Structure-Function Analysis, Identification of the Fragment Biologically Active on Tight Junctions and of the Zonulin Receptor Binding Domain,” J. Biol.

[2] = system: human cultured keratinocytes and reconstructed human epidermis; conditions: literature (Kurasawa et al. 2009); cited from earlier work
[3] = system: claudin-1; experiment: Western blot of claudin-1 protein in primary human keratinocytes; assay type: cell-based; conditions: 50 ng/ml; for claudin-1 expression over control: 48 hours, differentiating PHK, n=3; for claudin-1 expression by Western blot: PHK differentiated 48 h
Experimental: Human keratinocytes were isolated from neonatal foreskin. Poumay et al., “Basal Detachment of the Epidermis Using Dispase: Tissue Spatial Organization and Fate of Integrin Alpha 6 Beta 4 and Hemidesmosomes,” J. Invest. Dermatol. 102:111-7 (1994), which is hereby incorporated by reference in its entirety. PHK were cultured in Keratinocyte-SFM (Invitrogen/Gibco) with 1% Pen/Strep, 0.2% Amphotericin B (Invitrogen/Gibco). To differentiate PHK, cells were grown in DMEM (Invitrogen/Gibco) with 10% heat-inactivated fetal bovine serum (Invitrogen/Gibco) and 1% Pen/Strep, 0.2% Amphotericin B (Invitrogen/Gibco). For TJ modulation experiments, the following cytokines were added alone or in combination to the differentiation media; human IL-4 (50 ng/ml; R&D system) and IL-13 (50 ng/ml; R&D system).
PHK were lysed on ice in RIPA lysis buffer (20 mM Tris, 50 mM NaCl, 2 mM EDTA, 2 mM EGTA, 1% sodium deoxycholate, 1% TX-100, and 2% SDS, pH 7.4), with 1:100 Protease Inhibitor Cocktail (Sigma), 1:100 Phosphatase Inhibitor Cocktail ([…] for 30 min at 4° C. The samples were heated at 95° C. for 10 min and then centrifuged at 14,000 rpm for 15 min. Forty μg of protein, determined by BCA (Pierce) in NuPage LDS Sample Buffer (Invitrogen) was applied to 4-12% NuPage Bis-Tris gels (Invitrogen). Electrophoresis was performed under reducing conditions with MES SDS Buffer (Invitrogen). Membranes were incubated in blotting solution (5% non-fat dry milk in PBS+0.05% Tween 20) at RT for 1 h and then incubated with primary antibodies; claudin-1 (JAY.8; Zymed), occludin (OC/3F10; Zymed) and GAPDH (FL-355; Santa Cruz). An HRP-linked secondary antibody (GE Healthcare) was used with ECL (GE Healthcare) to visualize bands by autoradiography with Kodak BioMax MR film. The pixel intensity of each band was estimated with Image J.
(§1) PHK were plated on glass coverslips at 2-3×10^5 cells/well in a 6-well plate or at 2-3×10^4 cells/filter in Transwell insert (Costar; PET membrane, 0.4 μm pore size, 6.5 mm insert) in Keratinocyte-SFM without antibiotics. The next day after plating, cells were transfected with claudin-1 specific or control (scrambled) siRNAs (Santa Cruz) using Lipofectamine™ 2000 transfection Reagent (Invitrogen). TEER and permeability experiments were conducted 48 hours after PHK were switched to differentiation media.

[4] = system: primary human keratinocytes (PHK); experiment: Trans Epithelial Electric Resistance (TEER) in PHK monolayers; assay type: cell-based
Experimental: PHK were plated at a subconfluent density of 2.5−3×10^4 cells/filter in Transwell insert and cultured in Keratinocyte-SFM media until confluent. TEER was measured using an EVOMX voltohmmeter (World Precision Instruments, Sarasota, Fla.). The resistance of cell-free filters was subtracted from each experimental value.
as §1
TEER was measured in PHK as described above. PHK were stimulated with S. aureus-derived peptidoglycan (PGN, 0.2-20 μg/ml, n=3-7) (FIG. 19A), Malp-2 (10-1000 ng/ml, n=3) (FIG. 19B), and Pam3CSK4 a TLR1/2 ligand (0.01-20 μg/ml, n=3-6) (FIG. 19C). Data are presented by analyzing the area under the TEER curve and normalized to the mean values for the control group (media alone)*p<0.05; **p<0.01.

[5] = system: occludin and ZO-1; experiment: Expression of occludin and ZO-1 in PHK differentiated with Th2 cytokines; assay type: cell-based, human; conditions: PHK differentiated with cytokine
Experimental: Human keratinocytes were isolated from neonatal foreskin. Poumay et al., “Basal Detachment of the Epidermis Using Dispase: Tissue Spatial Organization and Fate of Integrin Alpha 6 Beta 4 and Hemidesmosomes,” J. Invest. Dermatol. 102:111-7 (1994), which is hereby incorporated by reference in its entirety. PHK were cultured in Keratinocyte-SFM (Invitrogen/Gibco) with 1% Pen/Strep, 0.2% Amphotericin B (Invitrogen/Gibco). To differentiate PHK, cells were grown in DMEM (Invitrogen/Gibco) with 10% heat-inactivated fetal bovine serum (Invitrogen/Gibco) and 1% Pen/Strep, 0.2% Amphotericin B (Invitrogen/Gibco). For TJ modulation experiments, the following cytokines were added alone or in combination to the differentiation media; human IL-4 (50 ng/ml; R&D system) and IL-13 (50 ng/ml; R&D system). […]
Previous studies have shown that claudin-1 expression in noncutaneous epithelial cells can be modulated by cytokines and growth factors. […] To test this possibility, PHK were differentiated in the presence or absence of Th2 cytokines, IL-4 and IL-13, and the expression of claudin-1, occludin and ZO-1 was evaluated. […]

[6] = system: CLDN1 mRNA; experiment: qPCR of CLDN1 mRNA in PHK treated with PPARγ agonist; assay type: cell-based, human; conditions: 5 μM, PHK differentiated in high Calcium media (DMEM) 24 h
Experimental: (§2) PHK were differentiated in high Calcium media (DMEM) in the presence of CIG 5 μM in DMSO or media with equivalent amount of DMSO alone, for 24 h. Total RNA was extracted from PHK using the QlAshredder spin column (Qiagen) and RNeasy RNA isolation kits (Qiagen). The quality of total RNA samples (RNA Integrity Number, RIN) was assessed using an Agilent 2100 Bioanalyzer (Agilent Technologies, Palo Alto, Calif.).
(§3) qPCR was performed using the iScript™ cDNA Synthesis kit and iQ™ SYBER Green Supermix assay system (Bio-Rad Laboratories). All PCR amplifications were carried out in triplicate on an iQ5 Multicolor real-time PCR detection system (Bio-Rad). Primers were designed and synthesized by Integrated DNA Technologies. Relative gene expression was calculated by using the 2^−ΔΔCt method, as previously described. The normalized Ct value of each sample was calculated using GAPDH as an endogenous control gene.

[7] = system: occludin mRNA; experiment: qPCR of occludin mRNA in PHK treated with PPARγ agonist; assay type: cell-based, human; conditions: 5 μM, PHK differentiated in high Calcium media (DMEM) 24 h
Experimental: as §2, §3

## CCCCCCCCCC(=O)[O-].[Na+] [SC, Sodium Decanoate]
[1]; 4 h
  TEER, dmem + SC_1: 0.79
  TEER, dmem + SC_2: 0.69
  TEER, mean SC: 0.74
[1]; 24 h
  TEER, dmem + SC_1: 0.56
  TEER, dmem + SC_2: 0.51
  TEER, mean SC: 0.54
[1]; after 4 hours of treatment
  TEER over media alone: 0.74 fold
[1]; after 24 hours
  TEER over media alone: 0.54 fold
[2]
  paracellular permeability: increased paracellular permeability
  transepithelial electrical resistance: decreased transepithelial electrical resistance

## IL-13: human IL-13 (R&D system), Th2 cytokine
[3]
  claudin-1 expression over control: 1.6±0.3 fold
  claudin-1 expression by Western blot: enhanced expression of claudin-1
[4]; 0.5-100 ng/ml, PHK
  TEER, dose response: only a slight increase in TEER
[5]
  expression of occludin and ZO-1: no effect

## Pam3CSK4 [reference compound]
[4]; PGN 0.2-20 μg/ml, Malp-2 10-1000 ng/ml, Pam3CSK4 0.01-20 μg/ml
  tight junction function (area under the TEER curve normalized to media alone): increase tight junction function

## CC1(COc2ccc(CC3SC(=O)NC3=O)cc2)CCCCC1 (stereo not shown) [ciglitazone]
[6]
  CLDN1 mRNA expression over DMSO alone: 1.7 fold
[7]
  occludin mRNA expression: 2.0 fold
[7]; listed as CIG
  occludin mRNA expression: 2 fold

B1: IL-4: human IL-4 (R&D system), Th2 cytokine (protein, UniProt P05112 25-153, looked up)
Interleukin-4: HKCDITLQEIIKTLNSLTEQKTLCTELTVTDIFAASKNTTEKETFCRAATVLRQFYSHHEKDTRCLGATAQQFHRHKQLIRFLKRLDRNLWGLAGLNSCPVKEANQSTLENFLERLKTIMREKYSKCSS
[3]
  claudin-1 expression over control: 2.1±0.4 fold
  claudin-1 expression by Western blot: enhanced expression of claudin-1
[4]; 50 ng/ml, PHK, n=4
  TEER peak: 166±24 Ohms×cm^2
[5]
  expression of occludin and ZO-1: no effect
